In patent US7928140B2, “Benzothiazole PI3 kinase modulators for cancer treatment” (Amgen Inc., priority 2007, dated 2011):

What was measured:
[1] = target: T1, PI3K α (Homo sapiens, UniProt P42336); experiment: In vitro PI3 kinase enzyme assay (alpha), ATP loss, bioluminescence; type: biochemical; settings: read-out: PI3Kα ATP loss IC50;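 further: purified p110α/p85 heterodimer acting on PtdIns(4,5)P2 at room temperature, remaining ATP read by luminescence, inhibition scaled between compound-free wells with and without enzyme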
T1 construct: Full length p110 subunits of PI3K α, β and δ, N-terminally labeled with polyHis tag; polyHis (N); made in house; host or cells: Sf9 insect cells (baculovirus)

[2] = target: T2, PI3K β (Homo sapiens, UniProt P42338); experiment: In vitro PI3 kinase enzyme assay (beta), ATP loss, bioluminescence; type: biochemical; settings: read-out: PI3Kβ ATP loss IC50;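 further: purified p110β/p85 heterodimer with PtdIns(4,5)P2 as acceptor, incubated at room temperature, leftover ATP read by luminescence, inhibition scaled to compound-free wells with and without enzyme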
T2 construct: Full length p110 subunits of PI3K α, β and δ, N-terminally labeled with polyHis tag; polyHis (N); made in house; host or cells: Sf9 insect cells (baculovirus)
T2 sequence (P42338 whole entry): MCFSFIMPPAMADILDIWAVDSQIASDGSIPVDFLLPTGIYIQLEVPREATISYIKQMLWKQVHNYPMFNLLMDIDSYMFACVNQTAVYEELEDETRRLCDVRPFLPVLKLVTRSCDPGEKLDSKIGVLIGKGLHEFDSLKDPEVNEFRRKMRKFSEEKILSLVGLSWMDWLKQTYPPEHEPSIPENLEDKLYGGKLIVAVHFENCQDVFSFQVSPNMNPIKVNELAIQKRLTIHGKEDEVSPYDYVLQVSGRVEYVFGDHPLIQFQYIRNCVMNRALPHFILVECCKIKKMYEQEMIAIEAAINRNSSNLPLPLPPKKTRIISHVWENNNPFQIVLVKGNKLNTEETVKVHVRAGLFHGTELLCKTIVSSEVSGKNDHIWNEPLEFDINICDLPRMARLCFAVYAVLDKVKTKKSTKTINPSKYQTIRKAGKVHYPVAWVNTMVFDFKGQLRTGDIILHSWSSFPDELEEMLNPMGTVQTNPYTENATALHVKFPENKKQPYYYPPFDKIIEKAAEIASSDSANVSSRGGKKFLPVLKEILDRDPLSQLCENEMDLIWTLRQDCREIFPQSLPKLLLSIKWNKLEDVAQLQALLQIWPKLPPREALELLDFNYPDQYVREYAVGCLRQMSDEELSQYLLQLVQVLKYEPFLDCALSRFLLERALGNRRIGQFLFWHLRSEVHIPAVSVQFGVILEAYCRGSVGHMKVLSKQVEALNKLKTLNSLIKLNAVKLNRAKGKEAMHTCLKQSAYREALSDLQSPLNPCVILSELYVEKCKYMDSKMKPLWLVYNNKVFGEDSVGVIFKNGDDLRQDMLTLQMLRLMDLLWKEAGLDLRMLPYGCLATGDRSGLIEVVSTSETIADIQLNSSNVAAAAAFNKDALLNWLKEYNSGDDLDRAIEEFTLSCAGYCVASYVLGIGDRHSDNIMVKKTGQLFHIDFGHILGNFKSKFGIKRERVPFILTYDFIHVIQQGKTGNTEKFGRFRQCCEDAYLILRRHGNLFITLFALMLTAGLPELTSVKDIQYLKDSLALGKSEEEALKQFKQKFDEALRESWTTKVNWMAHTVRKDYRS
T2 sequence (P27986 whole entry partner): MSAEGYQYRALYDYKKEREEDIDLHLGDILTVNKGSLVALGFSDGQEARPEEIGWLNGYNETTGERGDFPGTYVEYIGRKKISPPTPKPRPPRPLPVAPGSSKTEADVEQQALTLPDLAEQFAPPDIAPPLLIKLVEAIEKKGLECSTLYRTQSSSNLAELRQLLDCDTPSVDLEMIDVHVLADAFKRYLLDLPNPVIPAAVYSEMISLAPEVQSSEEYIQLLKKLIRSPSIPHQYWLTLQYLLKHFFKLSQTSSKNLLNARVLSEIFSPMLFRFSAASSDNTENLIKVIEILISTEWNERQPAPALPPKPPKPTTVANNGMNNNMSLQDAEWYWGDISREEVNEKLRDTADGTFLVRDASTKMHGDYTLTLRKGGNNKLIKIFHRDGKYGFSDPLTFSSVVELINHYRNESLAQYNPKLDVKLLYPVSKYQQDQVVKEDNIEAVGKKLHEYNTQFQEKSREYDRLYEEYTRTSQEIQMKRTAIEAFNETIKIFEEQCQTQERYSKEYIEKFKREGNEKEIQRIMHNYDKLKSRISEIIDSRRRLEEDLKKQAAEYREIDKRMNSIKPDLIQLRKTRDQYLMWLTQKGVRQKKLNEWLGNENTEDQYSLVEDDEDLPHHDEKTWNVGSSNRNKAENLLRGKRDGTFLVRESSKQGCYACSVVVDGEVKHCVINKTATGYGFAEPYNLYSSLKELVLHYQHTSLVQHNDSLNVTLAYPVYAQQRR

T1 sequence (P42336 whole entry, species assumed): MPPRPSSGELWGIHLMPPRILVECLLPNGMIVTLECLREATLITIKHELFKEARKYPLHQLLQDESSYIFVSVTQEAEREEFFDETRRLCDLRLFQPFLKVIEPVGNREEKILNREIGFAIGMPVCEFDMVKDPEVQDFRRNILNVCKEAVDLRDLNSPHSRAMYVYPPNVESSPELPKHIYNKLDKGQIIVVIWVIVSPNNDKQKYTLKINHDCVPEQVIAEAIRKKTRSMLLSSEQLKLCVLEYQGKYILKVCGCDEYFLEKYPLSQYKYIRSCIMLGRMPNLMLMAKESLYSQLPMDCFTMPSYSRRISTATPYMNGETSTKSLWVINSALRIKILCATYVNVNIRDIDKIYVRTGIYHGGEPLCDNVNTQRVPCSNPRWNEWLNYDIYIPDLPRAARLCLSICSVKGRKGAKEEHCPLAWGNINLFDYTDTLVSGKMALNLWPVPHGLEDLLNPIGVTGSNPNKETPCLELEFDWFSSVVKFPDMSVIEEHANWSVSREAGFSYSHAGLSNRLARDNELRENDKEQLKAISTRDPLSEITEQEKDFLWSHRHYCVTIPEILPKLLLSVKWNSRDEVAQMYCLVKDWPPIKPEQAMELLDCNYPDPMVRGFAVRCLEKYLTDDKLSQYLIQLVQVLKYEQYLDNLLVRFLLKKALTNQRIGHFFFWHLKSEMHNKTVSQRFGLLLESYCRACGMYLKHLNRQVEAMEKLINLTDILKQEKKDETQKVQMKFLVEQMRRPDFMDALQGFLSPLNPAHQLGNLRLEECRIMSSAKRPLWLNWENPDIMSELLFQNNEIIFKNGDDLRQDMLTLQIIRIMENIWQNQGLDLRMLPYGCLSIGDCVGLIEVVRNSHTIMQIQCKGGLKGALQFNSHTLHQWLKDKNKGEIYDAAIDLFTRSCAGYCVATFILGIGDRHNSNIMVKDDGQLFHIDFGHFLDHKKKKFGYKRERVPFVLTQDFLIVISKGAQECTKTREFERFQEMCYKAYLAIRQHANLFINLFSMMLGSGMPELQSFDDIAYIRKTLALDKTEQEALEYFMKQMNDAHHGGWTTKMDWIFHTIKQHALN
T1 sequence (P27986 whole entry partner, species assumed): as the sequence (P27986 whole entry partner) above

Compound	IC50 [1]	IC50 [2]
CC(=O)Nc1nc2ccc(-c3cnc(OCCN(C)C)c(NC(C)C)c3)cc2s1 [Example 159, N-(6-(6-(2-(dimethylamino)ethoxy)-5-(isopropylamino)pyridin-3-yl)benzo[d]thiazol-2-yl)acetamide]	914 nM	3740 nM
COc1cccc(-c2cccc3nc(NC(C)=O)sc23)c1 [Example 96, N-(7-(3-methoxyphenyl)-1,3-benzothiazol-2-yl)acetamide]	1680 nM	> 40000 nM
CC(=O)Nc1nc2ccc(-c3csc(S(=O)(=O)c4ccc(F)cc4)n3)cc2s1 [Example 97, N-(6-(2-(4-Fluorophenylsulfonyl)thiazol-4-yl)benzo[d]thiazol-2-yl)acetamide]	17300 nM	28000 nM
CC(=O)Nc1nc2ccc(-c3cnc4c(c3)NC(C)(C)N4C)cc2s1 [Example 157, N-(6-(2,2,3-trimethyl-2,3-dihydro-1H-imidazo[4,5-b]pyridin-6-yl)benzo[d]thiazol-2-yl)acetamide]	664 nM	> 40000 nM
CC(=O)Nc1nc2ccc(-c3cncc(N(C)S(=O)(=O)c4ccc(Cl)cc4)c3)cc2s1 [Example 220, N-(6-(5-(4-chloro-N-methylphenylsulfonamido)pyridin-3-yl)benzo[d]thiazol-2-yl)acetamide]	539 nM	3330 nM
CC(C)(C)OC(=O)Nc1nc2ccc(-c3nnc(N(Cc4ccccc4)S(C)(=O)=O)o3)cc2s1 [Example 170, tert-Butyl 6-(5-(N-benzylmethan-9-ylsulfonamido)-1,3,4-oxadiazol-2-yl)benzo[d]thiazol-2-ylcarbamate]	3910 nM	4760 nM
CN(C)c1cc(-c2ccc3nc(NC(=O)NCCN4CCOCC4)sc3c2)cnc1Cl [Example 273, 1-(6-(6-chloro-5-(dimethylamino)pyridin-3-yl)benzo[d]thiazol-2-yl)-3-(2-morpholinoethyl)urea]	115 nM	2070 nM
Oc1cc(-c2ccc3ncsc3c2)cnc1Cl [Example 334, 5-(1,3-benzothiazol-6-yl)-2-chloro-3-pyridinol]	116 nM	1350 nM
COc1ccc(S(=O)(=O)Nc2cc(-c3ccc4nc(NC(C)C)sc4c3)cnc2Cl)cc1 [Example 305, N-(2-chloro-5-(2-((1-methylethyl)amino)-1,3-benzothiazol-6-yl)-3-pyridinyl)-4-methoxybenzenesulfonamide]	58.9 nM	224 nM
CC(=O)Nc1nc2ccc(-c3cncc(OCCN4CCCCC4)c3)cc2s1 [Example 233, N-(6-(5-(2-(piperidin-1-yl)ethoxy)pyridin-3-yl)benzo[d]thiazol-2-yl)acetamide]	4140 nM	11900 nM
CC(=O)Nc1nc2ccc(-c3cncc(OC(C)CN4CCOCC4)c3)cc2s1 (stereo not drawn) [Example 231, N-(6-(5-(1-morpholinopropan-2-yloxy)pyridin-3-yl)benzo[d]thiazol-2-yl)acetamide]	637 nM	15700 nM
COCCOCOc1cc(-c2ccc3nc(NC(C)=O)sc3c2)cnc1Cl [Example 292, N-(6-(6-chloro-5-((2-methoxyethoxy)methoxy)pyridin-3-yl)benzo[d]thiazol-2-yl)acetamide]	164 nM	2080 nM
CC(=O)Nc1nc2ccc(-c3cncc(OCCN4CCC(F)C4=O)c3)cc2s1 (stereo not drawn) [Example 255]	794 nM	> 40000 nM
COCCOCOc1cc(-c2ccc3nc(NC(C)=O)sc3c2)cnc1C(F)(F)F [Example 293, N-(6-(5-((2-methoxyethoxy)methoxy)-6-(trifluoromethyl)pyridin-3-yl)benzo[d]thiazol-2-yl)acetamide]	211 nM	> 40000 nM
COc1cc(Cl)ncc1-c1ccc2nc(NC(C)=O)sc2c1 [Example 246, N-(6-(6-chloro-4-methoxypyridin-3-yl)benzo[d]thiazol-2-yl)acetamide]	256 nM	12400 nM
Cc1nc2ccc(-c3cc(O)c(C(F)(F)F)nc3F)cc2s1 [Example 341, 6-fluoro-5-(2-methyl-1,3-benzothiazol-6-yl)-2-(trifluoromethyl)-3-pyridinol]	21800 nM	> 40000 nM
CC(=O)Nc1nc2ccc(-c3cnc(Cl)c(OC(C)C#N)c3)cc2s1 (stereo not drawn) [Example 290, N-(6-(6-chloro-5-(1-cyanoethoxy)pyridin-3-yl)benzo[d]thiazol-2-yl)acetamide]	111 nM	747 nM
Cc1ccc(S(=O)(=O)Nc2nnc(-c3ccc4nc(N)sc4c3)o2)cc1 [Example 165, N-(5-(2-Aminobenzo[d]thiazol-6-yl)-1,3,4-oxadiazol-2-yl)-4-methylbenzenesulfonamide]	196 nM	170 nM
CCOc1ccc(-c2ccc3nc(NC(C)=O)sc3c2)cn1 [Example 243, N-(6-(6-ethoxypyridin-3-yl)benzo[d]thiazol-2-yl)acetamide]	156 nM	> 40000 nM
COc1ccc(-c2cccc3nc(NC(C)=O)sc23)cc1F [Example 94]	998 nM	24800 nM
CC(=O)Nc1nc2ccc(-c3cncc(OCCN4CCCC4=O)c3)cc2s1 [Example 229, N-(6-(5-(2-(2-oxopyrrolidin-1-yl)ethoxy)pyridin-3-yl)benzo[d]thiazol-2-yl)acetamide]	1080 nM	15000 nM
Nc1nc2ccc(-c3nnc(NS(=O)(=O)c4ccc(F)cc4)o3)cc2s1 [Example 168, N-(5-(2-aminobenzo[d]thiazol-6-yl)-1,3,4-oxadiazol-2-yl)-4-fluorobenzenesulfonamide]	665 nM	816 nM
COc1ccc(S(=O)(=O)Nc2cccc(-c3ccc4nc(NC(C)=O)sc4c3)c2)cc1 [Example 260, N-(6-(3-(4-methoxyphenylsulfonamido)phenyl)benzo[d]thiazol-2-yl)acetamide]	–	413 nM
CC(=O)Nc1nc2ccc(-c3cccc(N)c3)nc2s1 [Example 156, N-(5-(3-aminophenyl)thiazolo[5,4-b]pyridin-2-yl)acetamide]	642 nM	–

Continued, values first:

IC50 [1]	IC50 [2]	Compound
2580 nM	> 40000 nM	CC(=O)Nc1nc2ccc(-c3ccnc(N(C)C)n3)cc2s1 [Example 52, N-(6-(2-(dimethylamino)-4-pyrimidinyl)-1,3-benzothiazol-2-yl)acetamide]
8030 nM	8860 nM	CC(=O)Nc1nc2ccc(-c3ccnc(OCc4ccc5[nH]ccc5c4)n3)cc2s1 [Example 24, N-(6-(2-(1H-indol-5-ylmethoxy)-4-pyrimidinyl)-1,3-benzothiazol-2-yl)acetamide]
126 nM	–	COc1ccc(COc2nccc(-c3ccc4nc(NC(C)=O)sc4c3)n2)cc1 [Example 38, N-(6-(2-((4-methoxybenzyl)oxy)-4-pyrimidinyl)-1,3-benzothiazol-2-yl)acetamide]
126 nM	221 nM	CC(=O)Nc1nc2ccc(-c3ccnc(N(C)S(=O)(=O)c4cccc5ccccc45)n3)cc2s1 [Example 207, N-(6-(2-(N-methylnaphthalene-1-sulfonamido)pyrimidin-4-yl)benzo[d]thiazol-2-yl)acetamide]
7980 nM	> 40000 nM	CC(=O)Nc1nc2ccc(-c3ccnc(O)n3)cc2s1 [Example 53, N-(6-(2-hydroxy-4-pyrimidinyl)-1,3-benzothiazol-2-yl)acetamide]
2380 nM	> 40000 nM	CC(=O)Nc1nc2ccc(-c3ccnc(OC4CCN(C)CC4)n3)cc2s1 [Example 31, N-(6-(2-((1-methyl-4-piperidinyl)oxy)-4-pyrimidinyl)-1,3-benzothiazol-2-yl)acetamide]
80.7 nM	1050 nM	CC(=O)Nc1nc2ccc(-c3ccnc(Sc4ccc(Br)cc4)n3)cc2s1 [Example 139, N-(6-(2-((4-bromophenyl)sulfanyl)-4-pyrimidinyl)-1,3-benzothiazol-2-yl)acetamide]
11300 nM	9800 nM	CN(C)CC(=O)Nc1nc2ccc(-c3ccnc(OCc4ccccc4)n3)cc2s1 [Example 59, N-(6-(2-(benzyloxy)-4-pyrimidinyl)-1,3-benzothiazol-2-yl)-N~2~,N~2~-dimethylglycinamide]
–	> 40000 nM	CC(=O)Nc1nc2ccc(-c3ccnc(OCCN4CCOCC4)n3)cc2s1 [Example 11]
285 nM	1540 nM	COc1ccccc1S(=O)(=O)c1cccc(-c2ccc3nc(NC(C)=O)sc3c2)n1 [Example 70, N-(6-(6-((2-methoxyphenyl)sulfonyl)-2-pyridinyl)-1,3-benzothiazol-2-yl)acetamide]
354 nM	404 nM	CC(=O)Nc1nc2ccc(-c3ccnc(N(C)S(=O)(=O)c4ccc5ncccc5c4)n3)cc2s1 [Example 204, N-(6-(2-(N-methylquinoline-6-sulfonamido)pyrimidin-4-yl)benzo[d]thiazol-2-yl)acetamide]
–	491 nM	COc1ccccc1Sc1nccc(-c2ccc3nc(NC(C)=O)sc3c2)n1 [Example 28, N-(6-(2-((2-methoxyphenyl)sulfanyl)-4-pyrimidinyl)-1,3-benzothiazol-2-yl)acetamide]
–	8270 nM	CC(=O)Nc1nc2ccc(-c3ccnc(Cl)n3)cc2s1 [Example 105, N-(6-(2-chloro-4-pyrimidinyl)-1,3-benzothiazol-2-yl)acetamide]
–	> 40000 nM	COCCCOc1nccc(-c2ccc3nc(NC(C)=O)sc3c2)n1 [Example 5, N-(6-(2-(3-methoxypropoxy)-4-pyrimidinyl)-1,3-benzothiazol-2-yl)acetamide]
–	309 nM	CC(=O)Nc1nc2ccc(-c3ccnc(Sc4ccccc4)n3)cc2s1 [Example 21, N-(6-(2-(phenylsulfanyl)-4-pyrimidinyl)-1,3-benzothiazol-2-yl)acetamide]
–	5970 nM	CC(=O)Nc1nc2ccc(-c3ccnc(Oc4ccccc4)n3)cc2s1 [Example 33, N-(6-(2-phenoxy-4-pyrimidinyl)-1,3-benzothiazol-2-yl)acetamide]
–	6470 nM	CC(=O)Nc1nc2ccc(-c3ccnc(CCc4ccccc4)n3)cc2s1 [Example 15, N-(6-(2-(2-phenylethyl)-4-pyrimidinyl)-1,3-benzothiazol-2-yl)acetamide]
